The source made the active and inactive calls. The rule behind the calls is not given here.
How the values were obtained:
[1] = biological target: T1, Protein cereblon/Cyclin-K/Cyclin-dependent kinase 12 (Homo sapiens, UniProt O75909+Q9NYV4+Q96SW2); assay: Protac activity at human CRBN/CDK12/CycK in human Bel-7402 cells assessed as degradation of CDK12 at 3 uM measured after 24 hrs by Western blotting assay; format: cell-based
[2] = biological target: T1, Protein cereblon/Cyclin-K/Cyclin-dependent kinase 12; assay: Protac activity at human CRBN/CDK12/CycK in human MDA-MB-231 cells assessed as degradation of CDK12 at 3 uM measured after 24 hrs by Western blotting assay; format: cell-based
CDK12/Cyclin K = CDK12/Cyclin K (Homo sapiens, UniProt Q9NYV4); assay: Inhibition of human CDK12 (696 to 1082 residues) /cyclinK (1 to 300 residues) using ac-YSPTSPpSYSPTSFpS-YSPTSPpSY-[PEG2]-RR-amid peptide as substrate in presence of ATP measured after 2 hrs by ADP-Glo kinase assay; format: protein-complex assay
[3] = biological target: Cyclin-dependent kinase 13 (Homo sapiens) (UniProt Q14004); assay: Inhibition of human N-terminal FLAG-tagged CDK13 (600 to 1100 residues) using GST-tagged CTD as substrate at 3 uM for 2 hrs by western blot analysis
[4] = biological target: T1, Protein cereblon/Cyclin-K/Cyclin-dependent kinase 12; assay: Protac activity at human CRBN/CDK12/CycK in human Bel-7402 (CRBN/KO) cells assessed as degradation of CDK12 measured after 24 hrs by Western blotting assay; format: cell-based
[5] = biological target: T1, Protein cereblon/Cyclin-K/Cyclin-dependent kinase 12; assay: Protac activity at human CRBN/CDK12/CycK in human MDA-MB-231(CRBN/KO) cells assessed as degradation of CDK12 measured after 24 hrs by Western blotting assay; format: cell-based
[6] = biological target: T2, CDK12/Cyclin K (Homo sapiens) (UniProt O75909+Q9NYV4); assay: Protac activity at human CDK12/CycK in human Bel-7402 (CRBN/WT) cells assessed as degradation of CDK12 measured after 24 hrs by Western blotting assay; format: cell-based
[7] = biological target: T2, CDK12/Cyclin K (Homo sapiens); assay: Protac activity at human CDK12/CycK in human MDA-MB-231 (CRBN/WT) cells assessed as degradation of CDK12 measured after 24 hrs by Western blotting assay; format: cell-based

T1 sequence (O75909 whole entry, looked up): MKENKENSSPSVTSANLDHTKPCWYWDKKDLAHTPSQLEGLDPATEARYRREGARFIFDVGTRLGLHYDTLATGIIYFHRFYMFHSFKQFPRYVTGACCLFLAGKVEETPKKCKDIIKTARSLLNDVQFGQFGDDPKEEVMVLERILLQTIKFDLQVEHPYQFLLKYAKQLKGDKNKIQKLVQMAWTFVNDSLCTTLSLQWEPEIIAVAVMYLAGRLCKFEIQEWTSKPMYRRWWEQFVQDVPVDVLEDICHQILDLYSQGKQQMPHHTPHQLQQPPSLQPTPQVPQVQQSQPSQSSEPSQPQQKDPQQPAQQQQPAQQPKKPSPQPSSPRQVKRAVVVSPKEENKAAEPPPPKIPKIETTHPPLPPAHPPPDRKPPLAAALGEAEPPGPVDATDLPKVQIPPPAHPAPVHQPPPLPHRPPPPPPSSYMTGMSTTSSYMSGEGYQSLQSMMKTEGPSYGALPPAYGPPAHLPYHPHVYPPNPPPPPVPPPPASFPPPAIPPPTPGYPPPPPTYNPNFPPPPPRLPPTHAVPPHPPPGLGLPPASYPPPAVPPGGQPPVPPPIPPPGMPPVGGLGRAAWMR
T1 sequence (Q96SW2 whole entry, looked up): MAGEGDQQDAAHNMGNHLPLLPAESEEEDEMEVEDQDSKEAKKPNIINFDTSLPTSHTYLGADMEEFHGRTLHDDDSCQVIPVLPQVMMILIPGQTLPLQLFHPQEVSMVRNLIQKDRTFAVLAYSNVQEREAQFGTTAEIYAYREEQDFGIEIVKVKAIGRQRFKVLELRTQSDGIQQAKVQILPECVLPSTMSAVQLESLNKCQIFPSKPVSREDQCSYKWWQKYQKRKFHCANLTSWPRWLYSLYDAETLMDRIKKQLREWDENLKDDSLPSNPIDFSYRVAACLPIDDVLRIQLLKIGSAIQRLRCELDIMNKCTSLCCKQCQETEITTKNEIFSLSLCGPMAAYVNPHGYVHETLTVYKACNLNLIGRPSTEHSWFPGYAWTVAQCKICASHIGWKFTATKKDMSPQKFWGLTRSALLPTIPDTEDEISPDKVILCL
T1 sequence (Q9NYV4 whole entry, looked up): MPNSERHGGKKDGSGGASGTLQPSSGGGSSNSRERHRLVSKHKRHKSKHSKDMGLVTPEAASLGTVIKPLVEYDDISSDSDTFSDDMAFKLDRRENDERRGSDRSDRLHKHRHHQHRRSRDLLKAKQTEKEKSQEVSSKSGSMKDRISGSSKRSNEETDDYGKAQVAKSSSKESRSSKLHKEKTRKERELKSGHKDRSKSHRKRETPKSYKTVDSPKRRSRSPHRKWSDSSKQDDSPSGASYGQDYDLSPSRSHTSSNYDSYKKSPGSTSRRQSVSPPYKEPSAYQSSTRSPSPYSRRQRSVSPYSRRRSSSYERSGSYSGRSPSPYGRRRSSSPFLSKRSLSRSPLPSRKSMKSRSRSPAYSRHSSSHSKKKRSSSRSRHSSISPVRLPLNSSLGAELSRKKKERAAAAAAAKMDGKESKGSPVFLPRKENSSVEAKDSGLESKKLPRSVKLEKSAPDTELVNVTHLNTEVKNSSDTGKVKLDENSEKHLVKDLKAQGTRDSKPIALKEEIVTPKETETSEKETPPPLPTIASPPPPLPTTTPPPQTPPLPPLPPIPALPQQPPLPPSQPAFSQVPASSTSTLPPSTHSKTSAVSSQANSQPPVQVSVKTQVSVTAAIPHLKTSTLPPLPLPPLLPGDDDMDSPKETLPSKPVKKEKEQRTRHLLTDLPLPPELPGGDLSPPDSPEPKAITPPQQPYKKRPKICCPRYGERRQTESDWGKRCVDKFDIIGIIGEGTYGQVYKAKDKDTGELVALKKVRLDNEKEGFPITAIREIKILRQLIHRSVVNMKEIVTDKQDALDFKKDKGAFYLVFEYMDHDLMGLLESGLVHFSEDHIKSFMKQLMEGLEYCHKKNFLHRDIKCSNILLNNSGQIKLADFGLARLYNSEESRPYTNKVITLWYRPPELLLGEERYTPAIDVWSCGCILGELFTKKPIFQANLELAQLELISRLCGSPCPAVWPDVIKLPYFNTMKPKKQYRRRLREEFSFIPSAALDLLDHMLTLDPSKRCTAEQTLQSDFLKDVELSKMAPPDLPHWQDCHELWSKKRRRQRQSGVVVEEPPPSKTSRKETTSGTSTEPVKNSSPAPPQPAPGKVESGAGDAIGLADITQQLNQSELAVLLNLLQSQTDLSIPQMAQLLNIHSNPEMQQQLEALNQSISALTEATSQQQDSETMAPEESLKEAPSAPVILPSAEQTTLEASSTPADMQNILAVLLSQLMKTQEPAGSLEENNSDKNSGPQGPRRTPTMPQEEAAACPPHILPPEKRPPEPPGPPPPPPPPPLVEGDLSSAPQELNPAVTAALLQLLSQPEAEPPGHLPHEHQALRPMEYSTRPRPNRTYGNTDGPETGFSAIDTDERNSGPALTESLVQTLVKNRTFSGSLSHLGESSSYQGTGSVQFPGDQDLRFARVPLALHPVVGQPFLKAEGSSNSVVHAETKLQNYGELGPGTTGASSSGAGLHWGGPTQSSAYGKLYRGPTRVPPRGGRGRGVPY
CDK12/Cyclin K, sequence (O75909 whole entry, the tested form may be a part): as the sequence (O75909 whole entry, looked up) above
CDK12/Cyclin K, sequence (Q9NYV4 whole entry, the tested form may be a part): as the sequence (Q9NYV4 whole entry, looked up) above
T2 sequence (O75909 whole entry, looked up): as the sequence (O75909 whole entry, looked up) above
T2 sequence (Q9NYV4 whole entry, looked up): as the sequence (Q9NYV4 whole entry, looked up) above
Cyclin-dependent kinase 13 (Homo sapiens), sequence (Q14004 whole entry, looked up, the tested form may be a part): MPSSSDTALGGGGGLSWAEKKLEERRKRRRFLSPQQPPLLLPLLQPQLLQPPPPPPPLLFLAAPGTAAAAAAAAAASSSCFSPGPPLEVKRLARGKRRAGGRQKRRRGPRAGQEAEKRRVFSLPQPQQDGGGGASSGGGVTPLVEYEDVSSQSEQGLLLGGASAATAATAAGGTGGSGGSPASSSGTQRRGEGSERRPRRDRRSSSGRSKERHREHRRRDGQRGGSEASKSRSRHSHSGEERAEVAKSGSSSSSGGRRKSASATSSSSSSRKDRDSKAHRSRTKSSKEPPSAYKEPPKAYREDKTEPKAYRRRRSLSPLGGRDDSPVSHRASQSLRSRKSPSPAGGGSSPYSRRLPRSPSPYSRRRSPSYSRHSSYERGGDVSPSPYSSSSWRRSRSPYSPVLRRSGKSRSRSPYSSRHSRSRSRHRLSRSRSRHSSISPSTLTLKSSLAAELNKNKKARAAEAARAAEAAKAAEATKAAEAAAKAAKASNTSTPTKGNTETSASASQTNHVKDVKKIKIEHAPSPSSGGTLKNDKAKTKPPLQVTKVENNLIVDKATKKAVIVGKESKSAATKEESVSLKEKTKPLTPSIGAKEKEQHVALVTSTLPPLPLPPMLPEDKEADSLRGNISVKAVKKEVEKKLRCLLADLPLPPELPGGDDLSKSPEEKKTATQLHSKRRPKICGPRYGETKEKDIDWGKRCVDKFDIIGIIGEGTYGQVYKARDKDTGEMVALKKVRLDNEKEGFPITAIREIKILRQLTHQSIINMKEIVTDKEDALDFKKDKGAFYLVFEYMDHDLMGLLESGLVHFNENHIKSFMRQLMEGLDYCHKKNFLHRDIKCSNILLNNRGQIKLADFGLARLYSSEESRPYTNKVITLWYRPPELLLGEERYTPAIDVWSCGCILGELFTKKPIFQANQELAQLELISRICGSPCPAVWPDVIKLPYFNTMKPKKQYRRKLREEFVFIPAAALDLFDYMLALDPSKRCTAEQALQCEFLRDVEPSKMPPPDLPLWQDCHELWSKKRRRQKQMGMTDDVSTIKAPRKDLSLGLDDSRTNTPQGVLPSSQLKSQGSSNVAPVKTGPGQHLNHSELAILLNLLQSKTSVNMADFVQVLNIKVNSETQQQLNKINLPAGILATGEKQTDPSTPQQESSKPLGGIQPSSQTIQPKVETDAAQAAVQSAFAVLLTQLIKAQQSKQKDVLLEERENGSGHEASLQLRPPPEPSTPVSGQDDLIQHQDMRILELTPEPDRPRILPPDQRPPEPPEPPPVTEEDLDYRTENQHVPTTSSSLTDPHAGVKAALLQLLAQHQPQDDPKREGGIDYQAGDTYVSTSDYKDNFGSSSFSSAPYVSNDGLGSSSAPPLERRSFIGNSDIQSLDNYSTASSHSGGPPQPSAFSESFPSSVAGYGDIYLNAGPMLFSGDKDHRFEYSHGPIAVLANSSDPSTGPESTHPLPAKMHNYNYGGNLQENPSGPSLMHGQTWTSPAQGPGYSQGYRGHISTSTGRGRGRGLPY

Activity [1]	Activity [2]	IC50 (CDK12/Cyclin K)	SMILES	other results
Active	Active		CC(C)n1cnc2c(NCc3nc4cc(F)c(NCCCCCCCCCCNC(=O)COc5cccc6c5C(=O)N(C5CCC(=O)NC5=O)C6=O)cc4[nH]3)nc(N3CCOCC3)nc21 (configuration not stated)	
Active	Active	2000 nM	CC(C)n1cnc2c(NCc3nc4cc(F)c(NCCCCCCCCCCCCNC(=O)COc5cccc6c5C(=O)N(C5CCC(=O)NC5=O)C6=O)cc4[nH]3)nc(N3CCOCC3)nc21 (configuration not stated)	inhibition [3]: inactive
		411 nM	COCCOCCOc1cc2[nH]c(CNc3nc(N4CCOCC4)nc4c3ncn4-c3cnn(C)c3)nc2cc1F	
			Cn1cc(-n2cnc3c(NCc4nc5cc(Cl)c(Cl)cc5[nH]4)nc(N4CCOCC4)nc32)cn1	Activity [4]: Active; Activity [5]: Active; Activity [6]: Active; Activity [7]: Active
		237 nM	COCCOCCOc1cc2[nH]c(CNc3nc(N4CCOCC4)nc4c3ncn4C(C)C)nc2cc1F	

Source: ChEMBL document CHEMBL5042492, “Noncovalent CDK12/13 dual inhibitors-based PROTACs degrade CDK12-Cyclin K complex and induce synthetic lethality with PARP inhibitor” (Eur J Med Chem, 2022)
